Experimental data taken from US5855916A, “Highly soluble multicomponent inclusion complexes containing a base type drug, an acid and a cyclodextrin” (priority 1993, dated 1999).
Converted amounts (≈) assume the structure as drawn. Read-outs that look alike come from different tables or passages of the source. Blank lines part the entries; values can stand above or below the compound they belong to.

Columns and labels:
[1] = simultaneous administration of citric acid; Tokumura et al.; cited from earlier work
[2] = Effect of some acids on the β-CD solubility; format: physicochemical
Experimental: In a test tube 1000 mg of β-CD in 5 ml of a solution having different concentrations of an acid selected from tartaric, citric, lactic acid, were let to equilibrate for two days at 28*/-2° C. under stirring. The solution was filtered and β-CD concentration was determined by HPLC.

[3] = for Solubility ratio to FB: FB: drug alone; for Solubility ratio to FB: FB/AT: drug with tartaric acid; for Solubility ratio to FB: FB/AT/βCD / Water solubility, drug concentration F: FB/AT/βCD: drug/tartaric acid/β-CD multicomponent complex; for Water solubility, drug concentration F: FB/βCD: drug/β-cyclodextrin complex; for Water solubility, drug concentration F: FB/DIMEB: drug/DIMEB complex; for Water solubility, drug concentration F: FB/HPβ-CD: drug/HPβ-CD complex; for Water solubility, drug concentration F: FB/RAMEB: drug/RAMEB complex; for Water solubility, drug concentration F: FB/α-CD: drug/α-CD complex; for Water solubility, drug concentration F: FB/γ-CD: drug/γ-CD complex
physchem = conditions: water
[4] = 1 mmol terfenadine, 15 ml water, 6 mmol acetic or 4 mmol formic acid
[5] = acidic conditions; Kikuchi et al.; cited from earlier work
[6] = Table 1, drug tartrate in β-CD solution, room temperature
[7] = drug concentration F: FB, Table 1, basic-type drug alone, room temperature
[8] = drug concentration F: FB, Table 3, basic-type drug alone
[9] = drug concentration F: FB/AT, Table 1, drug with tartaric acid, room temperature

SMILES: C(=C\c1ccccc1)/CN1CCN(C(c2ccccc2)c2ccccc2)CC1 [Cinnarizine]
Difference in bioavailability between cinnarizine + citric acid and its β-cyclodextrin complex + citric acid [1]: no significant difference

SMILES: COc1ccc(CCN2CCC(Nc3nc4ccccc4n3Cc3ccc(F)cc3)CC2)cc1 [Astemizole]
Solubility ratio to FB: FB ([3]; Table 1): 1 x
Solubility ratio to FB: FT/βCD ([3]; Table 1, drug tartrate in β-CD solution): 1975 x
Water solubility, drug concentration F: FT/βCD [3, 6]: 7900 µg/mL
Solubility ratio to FB: FB/AT ([3]; Table 1): 817.5 x
Solubility ratio to FB: FB/AT/βCD ([3]; Table 1): 22500 x
Water solubility, drug concentration F: FB/AT/βCD ([3]; Table 1, room temperature): 90000 µg/mL
Solubility ratio to FB: FB/βCD ([3]; Table 1, drug/β-CD complex): 16 x
Water solubility, drug concentration F: FB/βCD ([3]; Table 1, room temperature): 65 µg/mL
Solubility ratio to FB: FB/DIMEB ([3]; Table 3): 303 x
Solubility ratio to FB: FB/HPβ-CD ([3]; Table 3): 86 x
Solubility ratio to FB: FB/RAMEB ([3]; Table 3): 275 x
Solubility ratio to FB: FB/α-CD ([3]; Table 3): 6 x
Solubility ratio to FB: FB/γ-CD ([3]; Table 3): 6.6 x
Water solubility, drug concentration F: FB/DIMEB ([3]; Table 3): 1245 µg/mL
Water solubility, drug concentration F: FB/HPβ-CD ([3]; Table 3): 353 µg/mL
Water solubility, drug concentration F: FB/RAMEB ([3]; Table 3): 1100 µg/mL
Water solubility, drug concentration F: FB/α-CD ([3]; Table 3): 24 µg/mL
Water solubility, drug concentration F: FB/γ-CD ([3]; Table 3): 27 µg/mL
solubility (physchem; [7]): 4 µg/mL (≈ 8.72 µM)
solubility (physchem; [8]): 4 µg/mL (≈ 8.72 µM)
solubility (physchem; [9]): 3270 µg/mL (≈ 7130 µM)

SMILES: O=c1[nH]c2ccccc2n1CCCN1CCC(n2c(=O)[nH]c3cc(Cl)ccc32)CC1 [Domperidone]
Solubility ratio to FB: FB ([3]; Table 1): 1 x
Solubility ratio to FB: FB/AT ([3]; Table 1): 2000 x
Solubility ratio to FB: FB/AT/βCD ([3]; Table 1): 5000 x
Water solubility, drug concentration F: FB/AT/βCD ([3]; Table 1, room temperature): 25000 µg/mL
Solubility ratio to FB: FB/βCD ([3]; Table 1, drug/β-CD complex): 4.4 x
Water solubility, drug concentration F: FB/βCD ([3]; Table 1, room temperature): 22 µg/mL
Solubility ratio to FB: FB/AT/DIMEB ([3]; Table 3): 600 x
Solubility ratio to FB: FB/AT/HPβ-CD ([3]; Table 3): 10000 x
Solubility ratio to FB: FB/AT/RAMEB ([3]; Table 3): 6000 x
Solubility ratio to FB: FB/AT/α-CD ([3]; Table 3): 5000 x
Solubility ratio to FB: FB/AT/γ-CD ([3]; Table 3): 6000 x
Solubility ratio to FB: FB/DIMEB ([3]; Table 3): 112 x
Solubility ratio to FB: FB/HPβ-CD ([3]; Table 3): 32 x
Solubility ratio to FB: FB/RAMEB ([3]; Table 3): 56 x
Solubility ratio to FB: FB/α-CD ([3]; Table 3): 6.6 x
Solubility ratio to FB: FB/γ-CD ([3]; Table 3): 8 x
Water solubility, drug concentration F: FB/DIMEB ([3]; Table 3): 560 µg/mL
Water solubility, drug concentration F: FB/HPβ-CD ([3]; Table 3): 160 µg/mL
Water solubility, drug concentration F: FB/RAMEB ([3]; Table 3): 280 µg/mL
Water solubility, drug concentration F: FB/AT/DIMEB ([3]; Table 3, drug/tartaric acid/DIMEB multicomponent complex): 30000 µg/mL
Water solubility, drug concentration F: FB/AT/HPβ-CD ([3]; Table 3, drug/tartaric acid/HPβ-CD multicomponent complex): 50000 µg/mL
Water solubility, drug concentration F: FB/AT/RAMEB ([3]; Table 3, drug/tartaric acid/RAMEB multicomponent complex): 30000 µg/mL
Water solubility, drug concentration F: FB/AT/α-CD ([3]; Table 3, drug/tartaric acid/α-CD multicomponent complex): 25000 µg/mL
Water solubility, drug concentration F: FB/AT/γ-CD ([3]; Table 3, drug/tartaric acid/γ-CD multicomponent complex): 30000 µg/mL
Water solubility, drug concentration F: FB/α-CD ([3]; Table 3): 33 µg/mL
Water solubility, drug concentration F: FB/γ-CD ([3]; Table 3): 40 µg/mL
solubility (physchem; [7]): 5 µg/mL (≈ 11.7 µM)
solubility (physchem; [8]): 5 µg/mL (≈ 11.7 µM)
solubility (physchem; [9]): 10000 µg/mL (≈ 23500 µM)

SMILES: CCCCCCNC(=O)n1cc(F)c(=O)[nH]c1=O [HCFU, 1-hexylcarbamoyl-5-fluorouracil]
Chemical stability [5]: chemically stable under acidic conditions

Other lines, results leading:

β-CD concentration ([2]; citric acid 0 mg/ml, 2880 min): 18.3 mg/mL
β-CD concentration ([2]; citric acid 9.6 mg/ml, 2880 min): 34.1 mg/mL
β-CD concentration ([2]; citric acid 19.2 mg/ml, 2880 min): 47.9 mg/mL
β-CD concentration ([2]; citric acid 48.0 mg/ml): 86.1 mg/mL
β-CD concentration ([2]; citric acid 96.0 mg/ml, 2880 min): 140.1 mg/mL
β-CD concentration ([2]; citric acid 144.0 mg/ml, 2880 min): 195.7 mg/mL
Effect of tartaric and citric acid on water solubility of β-CD ([2]; depending on acid concentration): remarkably enhance the water solubility
β-CD concentration ([2]; lactic acid 0 mg/ml, 2880 min): 18.3 mg/mL
β-CD concentration ([2]; lactic acid 9.0 mg/ml, 2880 min): 18.8 mg/mL
β-CD concentration ([2]; lactic acid 22.5 mg/ml, 2880 min): 24.2 mg/mL
β-CD concentration ([2]; lactic acid 67.5 mg/ml, 2880 min): 35.8 mg/mL
Effect of lactic acid on water solubility of β-CD ([2]; lactic acid, compared with tartaric and citric acid): lower effect
Increase of the β-CD solubility in the binary system acid-β-CD ([2]; tartaric 11 and citric 17 mg/ml respectively): about 2 times
β-CD concentration ([2]; tartaric acid 0 mg/ml, 2880 min): 18.3 mg/mL
β-CD concentration ([2]; tartaric acid 15.0 mg/ml, 2880 min): 31.4 mg/mL
β-CD concentration ([2]; tartaric acid 112.5 mg/ml, 2880 min): 83.7 mg/mL
SMILES: OC[C@H]1O[C@@H]2O[C@H]3[C@H](O)[C@@H](O)[C@@H](O[C@H]4[C@H](O)[C@@H](O)[C@@H](O[C@H]5[C@H](O)[C@@H](O)[C@@H](O[C@H]6[C@H](O)[C@@H](O)[C@@H](O[C@H]7[C@H](O)[C@@H](O)[C@@H](O[C@H]8[C@H](O)[C@@H](O)[C@@H](O[C@H]1[C@H](O)[C@H]2O)O[C@@H]8CO)O[C@@H]7CO)O[C@@H]6CO)O[C@@H]5CO)O[C@@H]4CO)O[C@@H]3CO [β-CD]

Water solubility, drug concentration F: FT/βCD [3, 6]: 21000 µg/mL
Water solubility, drug concentration F: FB/AT/βCD ([3]; Table 1, room temperature): 110000 µg/mL
Water solubility, drug concentration F: FB/βCD ([3]; Table 1, room temperature): 1240 µg/mL
solubility (physchem; [7]): 50 µg/mL (≈ 94.1 µM)
solubility (physchem; [9]): 21000 µg/mL (≈ 39500 µM)
SMILES: CC(=O)N1CCN(c2ccc(OCC3COC(Cn4ccnc4)(c4ccc(Cl)cc4Cl)O3)cc2)CC1 (stereo not drawn) [Ketoconazole]

Dissolution attempt with acid without cyclodextrin [4]: not successful
SMILES: CC(C)(C)c1ccc(C(O)CCCN2CCC(C(O)(c3ccccc3)c3ccccc3)CC2)cc1 (stereo not drawn) [Terfenadine]

Solubility ratio to FB: FB ([3]; Table 2): 1 x
Solubility ratio to FB: FC/βCD ([3]; Table 2, drug citrate in β-CD solution): 500 x
Water solubility, drug concentration F: FC/βCD ([3]; Table 2, drug citrate in β-CD solution, room temperature): 20000 µg/mL
Solubility ratio to FB: FB/AC ([3]; Table 2, drug with citric acid): 155 x
Solubility ratio to FB: FB/AC/βCD ([3]; Table 2, drug/citric acid/β-CD multicomponent complex): 1925 x
Water solubility, drug concentration F: FB/AC/βCD ([3]; Table 2, drug/citric acid/β-CD multicomponent complex, room temperature): 77000 µg/mL
Solubility ratio to FB: FB/CD ([3]; Table 2, drug/β-CD complex): 7 x
Water solubility, drug concentration F: FB/CD ([3]; Table 2, drug/β-CD complex, room temperature): 280 µg/mL
solubility (physchem; drug concentration F: FB, Table 2, basic-type drug alone, room temperature): 40 µg/mL (≈ 98.5 µM)
solubility (physchem; drug concentration F: FB/AC, Table 2, drug with citric acid, room temperature): 6200 µg/mL (≈ 15300 µM)
SMILES: CCN(CC)CCOc1ccc(C(=C(Cl)c2ccccc2)c2ccccc2)cc1 [Clomifene]
